Assay results published in patent publication US20140234868A1, “USE FOR GLYCOLIPOPROTEIN GINTONIN, ISOLATED AND IDENTIFIED FROM GINSENG, AS A NATURAL MEDICAL-PLANT DERIVED LIGAND” (KONKUK UNIVERSITY INDUSTRIAL COOPERATION CORP., priority 2011, published 2014).

Experiments:
[1] = system: NMDA receptors (NR1 and NR2); assay: NMDA receptor activity in Xenopus oocytes, two-electrode voltage clamp; format: cell-based; conditions: Kil6425 10 μM, 2-APB 100 μM, BAPTA 100 μM 3 h
Experimental: cDNAs of NMDA receptor subunits (NR1 and NR2) were employed (Zheng et al., J Neurosci. 17, 8676-8686, 1997). cDNAs (100 ng/40 nl) corresponding to respective NMDA receptor subunits (NR1 and NR2) were injected into animal or vegetal poles of oocytes by use of a […] (VWR Scientific, USA) and incubated for 4-5 days after injection (Zheng et al., J Neurosci. 17, 8676-8686, 1997).
(§1) Xenopus laevis frogs were obtained from Xenopus I (Ann Arbor, Mich.). Their care and handling were in accordance with the highest standards of institutional guidelines. To isolate oocytes, the frogs were operated on under anesthesia with an aerated solution of 3-aminobenzoic acid ethyl ester. Oocytes were separated by treatment with collagenase and agitation for two hours in a Ca^2+-free medium containing 82.5 mM NaCl, 2 mM KCl, 1 mM MgCl2, 5 mM HEPES, 2.5 mM sodium pyruvate, 100 units/ml penicillin and 100 μg/ml streptomycin.
(§2) Stage V-VI oocytes were collected and stored in ND96 (96 mM NaCl, 2 mM KCl, 1 mM MgCl2, 1.8 mM CaCl2, and 5 mM HEPES, pH 7.4) supplemented with 50 μg/ml gentamicin. This oocyte containing solution was maintained at 18° C. with continuous gentle shaking while the ND96 medium was changed to a fresh one every day.
Two-electrode voltage-clamp recordings were obtained from individual oocytes placed in a small Plexiglas net chamber (5 ml). Electrophysiological experiments were performed using microelectrodes filled with 3 M KCl (resistance of 0.2-0.7 MΩ) and an Oocyte Clamp amplifier (OC-725C; Warner Instrument, Hamden, Conn.). For physiological recordings of NMDA receptor activity, oocytes were first perfused with Mg^2+-free ND96 (mM: 96 NaOH, 2 KOH, 0.3 CaCl2, 5 HEPES pH 7.6 with methanesulfonic acid). Then, the oocytes were clamped at −60 mV holding potential, followed by recoding NMDA currents (induced by administering […]) (Zheng et al., J Neurosci. 17, 8676-8686, 1997; Chang and Kuo, J Neurosci. 28, 1546-1556, 2008).

endogenous CaCC = assay: Endogenous Ca2+-activated channel (CaCC) activation in Xenopus oocytes; format: cell-based, Xenopus laevis; conditions: Kil6425 10 μM; U73122 1 μM; 2-APB 100 μM; BAPTA 100 μM 3 h
BKCaK+ channels = assay: BKCa K+ channel activity in Xenopus oocytes, two-electrode voltage clamp; format: cell-based; conditions: Kil6425 10 μM; U73122, U73343 1 μM; 2-APB 100 μM; BAPTA-AM; PMA 1 μM
Experimental: as §1
as §2, with “changed with” for “changed to”
Two-electrode voltage-clamp recordings were obtained from individual oocytes placed in a small Plexiglas net chamber (5 ml). Electrophysiological experiments were performed using microelectrodes filled with 3 M KCl (resistance of 0.2-0.7 MΩ) and an Oocyte Clamp amplifier (OC-725C; Warner Instrument, CT, USA) to record BKc K^+ channel activity at room temperature (Choi et al., Mol Cells 31, 133-140, 2011). For physiological recordings of BKCaK^+ channel activity, oocytes were first perfused with a Cl^−- and Ca^2+-free solution (mM: 96 NaOH, 2 KOH, 8 Mg-gluconate, 5 HEPES, 5 EGTA, pH 7.4 with methanesulfonic acid) supplemented with 500 μM anthracene-9-carboxylic acid, a Cl^− channel blocker, to block endogenous Cl-channels (Lu et al., J. Biol. Chem. 265, 16190-16194.1990). Then, the oocytes were clamped at −80 mV holding potential, followed by step depolarization from the holding potential to +40 mV at regular intervals of […] for 400 ms to record outward currents.

LPA2 receptor = LPA2 receptor (Homo sapiens, UniProt Q9HBW0); assay: Intracellular free Ca2+ (Fura-2AM) in LPA2-expressing B103 cells; format: cell-based; design: host or cells: B103 rat neuroblastoma cells; conditions: LPA2-expressing B103 cells
Sequence of LPA2 receptor (Q9HBW0 whole entry): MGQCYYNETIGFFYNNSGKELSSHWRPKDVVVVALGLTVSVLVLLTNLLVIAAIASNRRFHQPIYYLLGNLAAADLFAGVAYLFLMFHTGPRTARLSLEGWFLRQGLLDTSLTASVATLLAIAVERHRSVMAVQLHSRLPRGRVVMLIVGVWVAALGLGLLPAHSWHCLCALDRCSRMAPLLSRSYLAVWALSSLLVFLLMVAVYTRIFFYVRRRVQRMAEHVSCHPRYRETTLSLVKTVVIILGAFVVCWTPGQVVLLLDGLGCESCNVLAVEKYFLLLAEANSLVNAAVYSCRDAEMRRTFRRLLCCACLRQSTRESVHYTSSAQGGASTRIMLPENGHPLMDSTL
Excerpt: LPA family receptors are endogenous to cells of most organs. B103 rat neuroblastoma cells, known as LPA receptor-null cells (Valentine et al., Biochim Biophys Acta 1780. 597-605) were transiently transfected with a plasmid (vector) carrying one of genes coding for LPA1(edg-2), LPA2(edg-4), LPA3(edg-7), LPA4, LPA5 and LPA6 receptors or a plasmid carrying none of them (empty vector). Two or three days after transfection, the cells are suspended, and made permeable. Then, the permeable cells are treated with Fura-2AM, a fluorescent dye binding to calcium, and then with gintonin, followed by spectrofluorephotometry to examine whether gintonin induces an increase in intracellular free Ca^2+ level.
(1) preparing large quantities of plasmids carrying respective LPA family receptor genes and an empty plasmid carrying none of them through amplification and purification (maxi-preparation); (2) verifying the expression of LPA receptors wherein B103 cells are transfected with haematoglutin (HA)-tagged LPA receptors, and then subjected to Western blotting analysis using an anti-HA primary antibody and a horseradish peroxidase (HRP)-conjugated secondary antibody to develop a color; (3) verifying the expression of LPA receptors wherein B1-3 cells are transfected with haematoglutin (HA)-tagged LPA receptors, and then subjected to confocal laser microscopy using an anti-HA antibody and a fluorescence dye Cy3-conjugated secondary antibody; (4) transfecting the empty plasmid and each of the plasmids carrying LPA family receptor genes into B103 cells; (5) treating the transfected B103 cells with trypsin (0.05% trypsin with EDTA, w/v) 2-3 days post-transfection, to give a cell suspension; (6) culturing the suspended B103 cells with Fura-2AM (2.5 μM); and (7) treating the suspended B103 cells with gintonin and quantifying a change in intracellular free Ca^2+ level in a cuvette by spectrofluorephotometry using Fura-2AM.
Human LPA (lysophosphatidic acid) receptor subtypes, orphan GPCRs (G protein coupled receptors) and plasmids carrying GPCRs were purchased from Missouri S&T resource Center (www.cDNA.org).
The transient transfection of LPA receptor subtypes was carried out with the aid of Lipofectamine 2000 of Invitrogen. A plasmid (10.8 μg) carrying each LPA receptor (LPA1, LPA2, LPA3, LPA4, LPA5, and LPA6) was transfected into B103 cells grown in 10-cm dishes, and incubated for 2 days prior for use in experiments.
In this Example, gintonin, or ginsenoside Rb1 or Rg1 was examined for its ability to induce a transient increase of [Ca^2+]i in Fura-2AM-loaded B103 cells which were transfected with LPA receptors and in Fura-2AM-loaded B103 cells which were not transfected with LPA receptors. […]

mice [2] = assay: Passive avoidance test, scopolamine-caused long-term memory impairment; format: in vivo, mouse; conditions: scopolamine alone (0.9 mg/kg, i.p.); test session 24 h after learning
Experimental: ICR male mice (25-28 g), purchased from Oriental Bio (Seoul, Korea), were bred according to the guideline of the Institutional Animal Care and Use Committee of Konkuk University, and subjected to passive avoidance test to examine memory maintenance impairment and the protection of gintonin against memory impairment according to the method of Yang et al. (Yang et al., Biol Pharm Bull 32, 1710-1715, 2009).
A passive avoidance test was performed in a training chamber which was divided into two compartments (20×20×20 cm in size, each) separated by an automatically moving guillotine door (5×5 cm): one compartment was lighted while the other remained dark where metal rods installed in a lattice pattern on the bottom so as to deliver an electrical foot shock (Gemini Avoidance System, San Diego, USA).
For an acquisition trial, a mouse was first placed in the lighted compartment, facing away from the dark compartment and allowed to explore for 10 sec. After 10 sec, the guillotine door was opened and the mouse was allowed to explore freely. When the mouse entered the dark compartment with all four paws according to its habit, the guillotine door was closed, and a footshock (0.5 mA, 3 sec duration) was delivered. The latency time to enter the dark compartment was recorded (from the time the door was lifted). 120 min before experimentation, gintonin (25, 50, 100 mg/kg, p.o) was administered while tacrine (10 mg/kg, p.o) was used as a positive control. Memory impairment was induced by injecting scopolamine (0.9 mg/kg, i.p.) 30 min after gintonin or tacrine administration (Araujo et al., Prog Neuropsycopharmcol Biol Psychiatry 29, 411-422, 2005). For a negative control, a physiological saline was used.
24 Hours after the learning session, an experiment was performed without injecting gintonin. The mouse was positioned again in the lighted compartment. After 10 sec of acclimation, the latency time to enter the dark compartment was recorded (from the time the door was lifted).

mice [3] = assay: Water maze test, scopolamine-caused spatial cognition impairment; format: in vivo, mouse; conditions: scopolamine alone (0.9 mg/kg i.p.)
Experimental: The Moths water maze set up contained a round water pool (45 cm deep with a diameter of 90 cm) filled with milk-mixed water (22±1° C.) to a depth of 30 cm. It was placed in a dark, sound-shielded room in which various visual cues were established. A white platform (6 cm in diameter, 29 cm in height) was inside the pool, with the top thereof 1 cm below the water surface in the center of one quadrant of the maze
On day 1, the mice were trained to swim for 60 sec. Subsequently, the training was conducted four times a day for four consecutive days, with the platform inside the pool. When the mouse reached the platform, it was allowed to sit on the platform only for 10 sec. If the failed in reaching the platform within 60 sec, it was guided to reach the platform and stay for 10 sec thereon. Afterwards, the mouse was returned back to the home cage and allowed to dry its body under an IR lamp. The time interval between trials was 30 sec.
The time to reach the hidden platform was recorded in each trial using a video camera-based Ethovision System (Nodulus, Wageningen, the Netherlands).
For each training trial, the mouse was placed into the pool at one quadrant at positions which were different day by day. One day after the final training trial, the mouse was evaluated. In this regard, after the platform was removed, the mouse was allowed to swim for 60 sec in search for the platform, and the time to swim in the quadrant where the platform was located was recorded. Gintonin (25, 50, or 100 mg/kg, p.o.) in physiological saline was administered 1 hr before test, every day. Tacrine (10 mg/kg, p.o.) was used as a positive control. Memory impairment was induced by scopolamine (0.9 mg/kg i.p.) 30 min after gintonin administration. For a negative control, only physiological saline was administered.
An examination was made of simple spatial reasoning. To this end, while the mice were allowed to swim in the absence of the rescue platform in the pool, the time period during which the mice swam in the quadrant where the rescue platform had been located was recorded.

SMILES | effect on NMDA-induced inward current ([1]; U73122 1 μM) | effect on gintonin-induced NMDA receptor activation ([1]; gintonin 1 μg/ml, U73122, U73343 1 μM, genistein 10 μM, PP2, PP3 30 μM) | effect on gintonin-induced CaCC activation (endogenous CaCC) | effect on gintonin-induced BKCaK+ channel activation (BKCaK+ channels) | effect on gintonin-induced intracellular calcium increase (LPA2 receptor) | latency time (mice [2]) [s] | swimming time in the quadrant where the platform had been located (mice [3]) [s]
COc1ccc2c(c1)CC[C@@H]1[C@@H]2CC[C@]2(C)[C@@H](NCCCCCCN3C(=O)C=CC3=O)CC[C@@H]12 [U73122] | did not block NMDA-induced inward current | blocked gintonin-induced NMDA receptor activation | suppressed gintonin-induced CaCC activation | blocked gintonin-induced BKCaK^+ channel activation | blocked |  | 
CN1[C@@H]2C[C@@H](OC(=O)[C@H](CO)c3ccccc3)C[C@H]1[C@@H]1O[C@@H]12 [scopolamine, reference compound] |  |  |  |  |  | 23.07 ± 1.95 | 13.47 ± 1.86
